From paper PMC5075098, “Preclinical Evaluation of the Stability, Safety, and Efficacy of CD101, a Novel Echinocandin” (Antimicrobial Agents and Chemotherapy, 2016)
≈ marks a conversion by molar mass, not a printed value. Where two headings read alike, the source gives them in different places. Starred links: 1 amine or outer side, 2 acyl side, 3 side chain; linkers in the order of their positions; H or OH if unused. Positions of bridges follow the written chain, without caps; N, C: chain ends. Non-standard residues stand in square brackets, D forms with d. Residues, ends and D or L forms follow the SMILES beside them. *: point of attachment. pTerphenylCO(4''-OnC5H11) = CCCCCOc1ccc(-c2ccc(-c3ccc(C(=O)*)cc3)cc2)cc1; Orn(4R-OH,5R-OH) = O=C([C@H](C[C@@H](O)[C@@H](O)N[*:3])N[*:1])[*:2]; hTyr(3S-OH,4S-OH) = N[C@H](C(=O)O)[C@H](O)[C@@H](O)c1ccc(O)cc1; Pro(3S-OH,4S-Me) = C[C@H]1CN[C@H](C(=O)O)[C@H]1O; Hyp = O=C(O)[C@@H]1C[C@@H](O)CN1

What was measured:
C. albicans R303 [1] = assay: Neutropenic mouse model of C. albicans infection, kidney colony counts
Protocol: Immunosuppression was induced by two intraperitoneal (i.p.) injections of cyclophosphamide at 150 mg/kg 4 days before and 100 mg/kg 1 day before inoculation. […] The animals in the fluconazole group were sacrificed 48 h after infection.

[2] = tested on: A. fumigatus (ATCC 13073); assay: Neutropenic mouse model of A. fumigatus infection, survival; settings: BID for 5 days; CD101 all dose groups and anidulafungin 1 and 5 mg/kg i.v. (P < 0.05); amphotericin B 0.3 mg/kg i.p.
Protocol: Animals were immunosuppressed by three i.p. injections of cyclophosphamide (the first injection at 6 mg/mouse 3 days before inoculation and the second and third injections at 2 mg/mouse on 1 and 4 days after inoculation). […] Dose administration started 1 and 7 h after infection. […] An increase of 50% or more in the survival rate of the active groups compared to the vehicle group indicated significant antifungal efficacy.

[3] = Plasma protein binding, ultracentrifugation; assay type: in vitro ADME; settings: human, ∼500,000 × g 2.5 h at 37°C, LC-MS/MS, SEM, read-out: % of protein bound (SEM) (converted)
Protocol: Ultracentrifugation ([15]) was used to compare human plasma protein binding of CD101 and anidulafungin. […] Following ultracentrifugation, the supernatant was transferred to a microtiter plate containing 50 μl plasma for matrix-matching purposes and quenched with 400 μl of cold acetonitrile (ACN) with 0.1% formic acid containing diclofenac as an internal standard. Quenched samples were centrifuged for 5 min at 10°C (e.g., 3,100 rpm [2,000 × g]) to sediment the precipitated proteins, and 50 μl supernatant was transferred to a microtiter plate containing 100 μl of water prior to analysis by LC-MS/MS. The percentage bound was the difference between 100% and the percentage free (the ratio of the concentration in supernatant to the total concentration).

[4] = Reactive metabolite screening (glutathione trapping); assay type: in vitro ADME; settings: PBS pH 7.4, excess GSH, 37°C, LC with high-resolution MS
Protocol: Samples were diluted to 10 μg/ml into 50:50 acetonitrile-water with 0.1 formic acid. Samples were analyzed by LC (Agilent 1100) with high-resolution MS (Waters quadrupole time of flight [Q-TOF] Premier mass spectrometer with electrospray interface) with concurrent low- and high-energy scans to obtain full-scan parent and product fragment ions. The analytical column was a Phenomenex Kinetex (2.6-μm C18, 100 by 3.0 mm). Waters MassLynx 4.1 software was used for data analysis.

[5] = after 44 h; cited from earlier work
Description: CD101, a novel echinocandin being developed as a high-exposure, once-weekly intravenous (i.v.) formulation for the treatment and prevention of systemic fungal infections, was designed to be chemically and metabolically stable to avoid hepatotoxicity while retaining the antifungal activity of an echinocandin.

C. albicans R303 [6] = settings: CLSI broth microdilution, read after 24 h at 35°C, prominent growth inhibition (∼50%)
Protocol: (§1) Enumeration of MIC and MEC assay inoculum viable counts was performed by plating aliquots of the starting assay inoculum on Sabouraud dextrose agar.

[7] = tested on: A. fumigatus (ATCC 13073); assay: MEC/MIC, CLSI broth microdilution; settings: 24 h at 35°C, rounded/compact hyphal morphology
Protocol: as §1

[8] = 2-week repeat-dose toxicity and hepatotoxicity screening; assay type: in vivo, Sprague-Dawley rats
Protocol: Dosing solutions were prepared in a vehicle comprising 5% mannitol containing 2.5% polysorbate 80 (Tween 80) in 0.3% acetic acid.
Animals were randomly assigned to dose groups and stratified by weight to achieve similar group mean body weights (males, 255 to 318 g; females, 192 to 215 g). Blood, urine, and liver samples (excised and preserved in 10% neutral buffered formalin) were obtained on day 15. Plasma liver enzyme levels were assessed. Liver tissues were processed to paraffin blocks and prepared for slides. Slides were stained with hematoxylin and eosin. Hematology data were collected using the Advia 120 hematology analyzer. Coagulation data were collected using the Diagnostica STA compact coagulation analyzer. Clinical chemistry data were collected using the AU400 chemistry analyzer. Qualitative and quantitative urinalysis was recorded using iRICELL 1500 UA analyzer. Clinical effects were assessed for determination of the maximum tolerated dose (MTD).
Statistical evaluations were performed on in-life and clinical pathology numerical data to determine statistical significance following a decision tree. First, the homogeneity of the data was determined by Bartlett's test. If the data were homogeneous, a one-way analysis of variance was performed to assess statistical significance. If statistically significant differences between the means were found, Dunnett's test was used to determine the degree of significance from the control means (P < 0.05, P < 0.01, and P < 0.001). If the data were nonhomogeneous, the Kruskal-Wallis nonparametric analysis was performed to assess statistical significance. If statistically significant differences between the means were found (P < 0.05, P < 0.01, and P < 0.001), the Mann-Whitney U test was used to determine the degree of significance from the control means (P < 0.05, P < 0.01, and P < 0.001).

C. albicans R303 [9] = assay: microbe, parasite or virus in culture; settings: Candida albicans, R303, 24 h
Protocol: as §1

[10] = anidulafungin 40 mg/kg/day i.v. 14 days, rats, relative to controls, P ≤ 0.001
[11] = anidulafungin 40 mg/kg/day i.v. 14 days, rats, P ≤ 0.001
[12] = anidulafungin 40 mg/kg/day i.v. 14 days, rats, P ≤ 0.01

CCCCCOc1ccc(-c2ccc(-c3ccc(C(=O)N[C@H]4C[C@@H](O)[C@@H](O)NC(=O)[C@@H]5[C@@H](O)[C@@H](C)CN5C(=O)[C@H]([C@@H](C)O)NC(=O)[C@H]([C@H](O)[C@@H](O)c5ccc(O)cc5)NC(=O)[C@@H]5C[C@@H](O)CN5C(=O)[C@H]([C@@H](C)O)NC4=O)cc3)cc2)cc1 [anidulafungin] ({pTerphenylCO(4''-OnC5H11)}-[Orn(4R-OH,5R-OH)]T[Hyp][hTyr(3S-OH,4S-OH)]T[Pro(3S-OH,4S-Me)]; lactam 1-C)
log reduction in CFU per gram relative to vehicle (C. albicans R303 [1]; 0.6 mg/kg single i.v. dose, 24, 48, 72 h): up to 2.7 log | antimicrobial effect (≥99%, 2-log reduction in CFU per gram) (C. albicans R303 [1]; anidulafungin 0.6 mg/kg i.v., at 24 and 48 h): significant | 10-day survival rate compared to the vehicle group [2]: significant increase | fraction unbound ([3]; 1 μg/ml): 0.022 | fraction unbound ([3]; 5 μg/ml): 0.014 | GSH adduct formation (reactive intermediate) [4]: did form a GSH adduct | % remaining in human plasma [5]: 7% | MIC (C. albicans R303 [6]): 0.03 µg/mL (≈ 0.0263 µM) | MEC [7]: 0.004 µg/mL | repeat-dose systemic or target organ toxicity ([8]; 14-day i.v. infusion, rats, CD101 20 mg/kg/day, anidulafungin 40 mg/kg/day (comparable exposure)): severe hemolytic anemia and liver toxicity | spleen finding upon necropsy ([8]; anidulafungin 40 mg/kg/day i.v. 14 days, rats): dark and enlarged spleens | increase in mean alkaline phosphatase (ALP) [8, 10]: up to 47% | increase in mean aspartate aminotransferase (AST) [8, 10]: up to 68% | increase in total bilirubin [8, 10]: up to 2 fold | increase in mean alanine transaminase (ALT) ([8]; anidulafungin 40 mg/kg/day i.v. 14 days, rats, relative to controls, P ≤ 0.05): up to 27% | decrease in the albumin/globulin ratio [8, 11]: up to 15% | increases in platelets [8, 11]: up to 44% | increases in reticulocyte (polychromasia), neutrophil, and eosinophil counts [8, 11]: up to 4 fold | decreases in activated partial thromboplastin time [8, 12]: up to 23% | decreases in red blood cells (RBC), hemoglobin, and hematocrit [8, 12]: up to 19% | increases in globulin [8, 12]: up to 19% | increases in serum cholesterol [8, 12]: up to 52% | reduced body weights and food consumption, decrease relative to controls ([8]; anidulafungin 40 mg/kg/day i.v. infusion 14 days, rats, P ≤ 0.05): up to 9% | microscopic changes in the liver ([8]; day 15, H&E, CD101 2, 6, or 20 mg/kg/day, anidulafungin 40 mg/kg/day (some of the females)): minimal to moderate single-cell necrosis affecting the hepatocytes

C[C@@H]1[C@H](O)[C@@H](C)/C=C/C=C/C=C/C=C/C=C/C=C/C=C/[C@H](O[C@@H]2O[C@H](C)[C@@H](O)[C@H](N)[C@@H]2O)C[C@@H]2O[C@](O)(C[C@@H](O)C[C@@H](O)[C@H](O)CC[C@@H](O)C[C@@H](O)CC(=O)O[C@H]1C)C[C@H](O)[C@H]2C(=O)O [amphotericin B, reference compound]
10-day survival rate compared to the vehicle group [2]: significant increase

OC(Cn1cncn1)(Cn1cncn1)c1ccc(F)cc1F [fluconazole, reference compound]
reduction in CFU per gram of paired kidneys relative to vehicle (C. albicans R303 [1]; 20 mg/kg oral, 2 h after infection, 48 h): 87% | log reduction in CFU per gram relative to vehicle (C. albicans R303 [1]; 20 mg/kg oral, 48 h): 1.1 log | MIC (C. albicans R303 [9]): 2 µg/mL (≈ 6.53 µM)
